Experimental findings from paper PMC11507377, “Intricate Evolution of Multifunctional Lipoxygenase in Red Algae” (International Journal of Molecular Sciences, 2024) are described below.

The target in one test is T1, SvLOX (Shewanella violacea, UniProt D4ZL63).
T1 construct: gene SVI_2441; SRPBCC domain + LOX domain
T1 sequence (D4ZL63 1-839): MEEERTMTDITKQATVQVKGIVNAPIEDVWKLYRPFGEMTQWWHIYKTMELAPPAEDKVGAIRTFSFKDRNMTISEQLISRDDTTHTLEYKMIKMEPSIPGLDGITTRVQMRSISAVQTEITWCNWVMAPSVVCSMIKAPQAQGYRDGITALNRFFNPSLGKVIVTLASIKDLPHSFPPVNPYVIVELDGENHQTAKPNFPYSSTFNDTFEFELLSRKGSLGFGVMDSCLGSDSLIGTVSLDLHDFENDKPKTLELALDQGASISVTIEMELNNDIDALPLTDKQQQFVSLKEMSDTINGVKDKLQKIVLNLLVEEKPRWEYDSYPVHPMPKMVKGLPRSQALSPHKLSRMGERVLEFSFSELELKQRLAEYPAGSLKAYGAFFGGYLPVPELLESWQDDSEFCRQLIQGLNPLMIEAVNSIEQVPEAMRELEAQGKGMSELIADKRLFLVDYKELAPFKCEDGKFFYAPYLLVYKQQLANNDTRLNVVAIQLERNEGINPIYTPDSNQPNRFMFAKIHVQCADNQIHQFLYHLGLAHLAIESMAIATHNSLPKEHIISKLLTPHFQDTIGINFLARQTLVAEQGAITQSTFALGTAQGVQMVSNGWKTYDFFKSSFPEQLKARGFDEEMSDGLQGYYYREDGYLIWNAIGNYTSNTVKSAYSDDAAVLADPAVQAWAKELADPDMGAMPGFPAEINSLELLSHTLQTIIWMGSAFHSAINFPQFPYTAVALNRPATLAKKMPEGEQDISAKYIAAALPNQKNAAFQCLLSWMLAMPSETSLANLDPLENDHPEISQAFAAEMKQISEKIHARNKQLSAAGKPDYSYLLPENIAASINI
As to the kind of experiment: HPLC-MS and GC-MS of products. Type of test: biochemical. The conditions noted are these: 100 μM ARA, 0.1 mg/mL enzyme, pH 8.0, 20 °C, 1 min (HPLC-MS) or 15 min (GC-MS).

In test [1] the target is T2, PhLOX (Pyropia haitanensis, UniProt J7JU42, F826L).
T2 construct: gene lox
T2 sequence (J7JU42 entry or part of it F826L): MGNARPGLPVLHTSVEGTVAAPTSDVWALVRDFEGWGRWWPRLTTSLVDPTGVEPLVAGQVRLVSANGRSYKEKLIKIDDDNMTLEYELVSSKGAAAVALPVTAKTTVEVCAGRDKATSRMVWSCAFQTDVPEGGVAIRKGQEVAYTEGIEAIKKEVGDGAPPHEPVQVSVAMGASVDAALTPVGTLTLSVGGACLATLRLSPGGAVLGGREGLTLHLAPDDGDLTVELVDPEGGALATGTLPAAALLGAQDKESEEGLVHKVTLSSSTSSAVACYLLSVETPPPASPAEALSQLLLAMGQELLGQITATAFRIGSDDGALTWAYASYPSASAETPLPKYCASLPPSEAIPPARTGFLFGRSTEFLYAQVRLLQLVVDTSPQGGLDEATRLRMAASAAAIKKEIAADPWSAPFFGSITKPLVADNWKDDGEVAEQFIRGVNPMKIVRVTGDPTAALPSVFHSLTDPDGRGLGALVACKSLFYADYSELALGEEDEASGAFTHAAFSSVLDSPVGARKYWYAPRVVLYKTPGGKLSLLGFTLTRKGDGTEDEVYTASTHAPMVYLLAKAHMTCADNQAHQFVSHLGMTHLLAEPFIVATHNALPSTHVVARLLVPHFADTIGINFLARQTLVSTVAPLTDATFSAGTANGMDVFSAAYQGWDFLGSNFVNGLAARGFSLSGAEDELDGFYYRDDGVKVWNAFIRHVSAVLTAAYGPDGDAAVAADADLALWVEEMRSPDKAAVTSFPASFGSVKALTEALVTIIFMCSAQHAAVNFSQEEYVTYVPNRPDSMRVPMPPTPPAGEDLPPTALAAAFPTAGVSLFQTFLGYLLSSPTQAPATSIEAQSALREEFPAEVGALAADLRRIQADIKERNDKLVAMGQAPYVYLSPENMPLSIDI
The conditions noted are these: 100 μM ALA, 0.1 mg/mL enzyme, pH 8.0, 20 °C, 15 min.

Test [2] has as its target T3, PhLOX (Pyropia haitanensis, UniProt J7JU42, F642V/F826L).
T3 construct: gene lox
Particulars: 100 μM ALA, 0.1 mg/mL enzyme, pH 8.0, 20 °C, 15 min.

T3 sequence (J7JU42 entry or part of it F642V/F826L): as the sequence (J7JU42 entry or part of it F826L) above, with F642V counted along it

Consider `CCCCC/C=C\C/C=C\C/C=C\C/C=C\CCCC(=O)O` [arachidonic acid], for which the “HPLC-MS and GC-MS of products” value at SvLOX is “the incubation of ARA with SvLOX gave 12-hydroperoxy/hydroxy eicosatetraenoic acids”.

With `CC/C=C\C/C=C\C/C=C\CCCCCCCC(=O)O` [α-linolenic acid], the HPLC-MS of products entry on PhLOX [1] is reported as “(ALA) was incubated with the F826L mutant of PhLOX, much more 9-HpOTE was formed”; at PhLOX [2], “When ALA was incubated with the F642V-F826L double mutant of PhLOX, 13-HpOTE was the dominating product”.
